Columns and labels:
PRMT5 = target: T1, PRMT5 (Homo sapiens, UniProt O14744); experiment: PRMT5 Enzymatic Inhibition Assay (chemiluminescence immunoassay of histone H4 methylation); assay type: biochemical; conditions: 1 hour at room temperature; 10 μM to 1 nM
T1 construct: purchased BPS Biosciences 52002L
Protocol: A chemiluminescence immunoassay (CLIA) measuring the amount of PRMT5-mediated histone methylation was performed in a 96-well plate format according to the manufacturer's protocol (BPS Biosciences, Cat #52002L). A 96-well plate precoated with histone H4 peptide was rehydrated prior to use. A master mix containing PRMT5 substrate S-adenosylmethionine, reaction buffer, and purified PRMT5 enzyme was added to create reaction-competent wells. Wells lacking either S-adenosylmethionine substrate or PRMT5 enzyme were created as negative controls. 10 test concentrations, ranging from 100 μM to 10 nM, of the test compound were prepared using a 1:3 serial dilution in dH2O. 5 μL of each test concentration was added into a reaction-competent well. 5 μL of a 1% DMSO aqueous solution lacking inhibitor was added into negative control wells and into a reaction-competent well, creating a positive control well. The final reaction volume in each well was 50 μL, and the final concentration of the test compound in each well ranged from 10 μM to 1 nM. A known inhibitor of PRMT5, EPZ015666, was tested in parallel reaction wells as an assay validation control. The 96-well plate was incubated for 1 hour at room temperature.
Upon completion of the incubation, the reaction supernatant in each well was discarded. Wells were washed with 1×TBST and incubated in blocking buffer for 1 hour. The wells were incubated with a primary antibody recognizing methylated Arg3 residues on Histone H4 for 1 hour. The wells were washed with 1×TBST again and subsequently incubated with an HRP-conjugated secondary antibody for 30 minutes. The wells were washed again with 1×TBST, and equal parts of the chemiluminescence reagents were added into each well. Quantification of luminescence was measured in a plate reader.
Luminescence values were normalized against the positive and negative controls to convert the data into % PRMT5 activity. An inhibitor concentration-dependent curve was plotted against % PRMT5 activity and am IC50 value was determined for each compound.

[1] = tested on: drug-sensitive cell lines of Table 4; experiment: Cell Line Growth Retardation Assay, average maximum effect in sensitive cohort; assay type: cell-based, Human; conditions: average maximum growth inhibition over sensitive cohort of Table 4; 6 days; up to 1 μM
Protocol: (§1) Cells were seeded at densities of 1,000-5,000 cells per well in 48-well tissue culture plates. After a 24 h rest period, cells were treated with compound at 1 μM, 0.2 μM, 0.04 μM, 0.008 μM, 0.0016 μM, and 0.00032 μM. A group of cells were treated with the vehicle in which the compound was prepared and served as a control. Prior to treatment, cells were counted and this count was used as a baseline for the calculation of growth inhibition. The cells were grown in the presence of compounds for 6 days and were counted on day 6. All cell counting was performed using a Synentec Cellavista plate imager. Growth inhibition was calculated as a ratio of cell population doublings in the presence of compound versus the absence of compound and expressed as the maximum percentage growth inhibition achieved across the range of tested concentrations of the compound (“maximum effect” or “ME”) calculated by fitting curves to data points from each dose-response assay using the Proc NLIN function in SAS for Windows version 9.2 (SAS Institute, Inc.).
(§2) Human cancer cell lines were grouped as “sensitive” or “resistant” to PRMT5 inhibition based on whether their growth was retarded by JNJ-64619178 (i.e., (1S,2R,3R,5R)-3-(2-(2-amino-3-bromoquinolin-7-yl)ethyl)-5-(4-amino-7H-pyrrolo[2,3-d]pyrimidin-7-yl)cyclopentane-1,2-diol) (data not shown; see Table 4). These sensitive and resistant cohorts were interrogated for response to each compound, and ME was calculated for each cell line using the same technique described above. Average MEs for the sensitive and resistant cohorts were calculated as arithmetic means of the group. “A” represents a percent of maximum effect of 60% or greater, “B” represents a percent of maximum effect of 30% to 59%, and “C” represents a percent of maximum effect of 29% or lower.

[2] = tested on: drug-resistant cell lines of Table 4; experiment: Cell Line Growth Retardation Assay, average maximum effect in resistant cohort; assay type: cell-based, Human; conditions: average maximum growth inhibition over resistant cohort of Table 4; 6 days; up to 1 μM
Protocol: as §1, §2

[3] = Caco-2 Assay (Papp A to B); assay type: in vitro ADME; conditions: human, pH 7.4
Protocol: The degree of bi-directional human intestinal permeability for compounds was estimated using a Caco-2 cell permeability assay. Caco-2 cells were seeded onto polyethylene membranes in 96-well plates. The growth medium was refreshed every 4 to 5 days until cells formed a confluent cell monolayer. HBSS with 10 mM HEPES at pH 7.4 was used as the transport buffer. Compounds were tested at 2 μM bi-directionally in duplicate. Digoxin, nadolol and metoprolol were included as standards. Digoxin was tested at 10 μM bi-directionally in duplicate, while nadolol and metoprolol were tested at 2 μM in the A to B direction in duplicate. The final DMSO concentration was adjusted to less than 1% for all experiments. The plate was incubated for 2 hours in a CO2 incubator at 37° C., with 5% CO2 at saturated humidity. After incubation, all wells were mixed with acetonitrile containing an internal standard, and the plate was centrifuged at 4,000 rpm for 10 minutes. 100 μL supernatant was collected from each well and diluted with 100 μL distilled water for LC/MS/MS analysis. Concentrations of test and control compounds in starting solution, donor solution, and receiver solution were quantified by LC/MS/MS, using peak area ratio of analyte/internal standard.
The apparent permeability coefficient Papp (cm/s) was calculated using the equation: Papp=(dCr/dt)×Vr/(A×C0), where dCr/dt is the cumulative concentration of compound in the receiver chamber as a function of time (μM/s); Vr is the solution volume in the receiver chamber (0.075 mL on the apical side, 0.25 mL on the basolateral side); A is the surface area for the transport, which is 0.0804 cm^2 for the area of the monolayer; and Co is the initial concentration in the donor chamber (μM). “A” represents a score of 1 or greater, “B” represents a score of 0.2 to 0.99, and “C” represents a score of less than 0.2.
The efflux ratio was calculated using the equation: Efflux Ratio=Papp(BA)/Papp(AB)
Percent recovery was calculated using the equation: % Recovery=100×[(Vr×Cr)+(Vd×Cd)]/(Vd×C0), where Vd is the volume in the donor chambers, which are 0.075 mL on the apical side and 0.25 mL on the basolateral side; and Cd and Cr are the final concentrations of transport compound in donor and receiver chambers, respectively. Measurement of Compound Metabolic Stability

[4] = Measurement of Compound Metabolic Stability in hepatocytes; assay type: in vitro ADME; conditions: mouse hepatocytes; for hepatocyte CLint at 1 μM: read-out: CLint (μL/min/10^6)
Protocol: The metabolic stability of compounds was determined in hepatocytes from human, mice and rats. Compounds were diluted to 5 μM in Williams' Medium E from 10 mM stock solutions. 10 μL of each compound was aliquoted into a well of a 96-well plate and reactions were started by aliquoting 40 μL of a 625,000 cells/mL suspension into each well. The plate was incubated at 37° C. with 5% CO2. At each corresponding time point, the reaction was stopped by quenching with ACN containing internal standards (IS) at a 1:3. Plates were shaken at 500 rpm for 10 min, and then centrifuged at 3,220×g for 20 minutes. Supernatants were transferred to another 96-well plate containing a dilution solution. Supernatants were analyzed by LC/MS/MS. The Half-lives (in minutes) and CLint values (in μL/min/10^6 cells) of example compounds, as measured in mouse hepatocytes, are presented in Table 3. […] For CLint, “A” represents greater than 100 μL/min/10^6 cells, “B” represents 50 to 100 μL/min/10^6 cells, and “C” represents less than 50 μL/min/10^6 cells.
The remaining percent of compound after incubation was calculated using the following equation: % Remaining Compound=Peak Area Ratios of Tested Compound vs. Internal Standard at End Point • Peak Area Ratios of Tested Compound vs. Internal Standard at Start Point Compound half-life and CLint were calculated using the following equations: Ct=C0*e^−k*t(first order kinetics); when […], t1/2=ln 2/k=0.693/k; and CLint=k/(1,000,000 cells/mL) Activity-Guided Selection of Inhibitors

[5] = Water solubility of mesylate salt; assay type: physicochemical; conditions: in water
Protocol: The freebase of Compound 15 was suspended in water, and methansulfonic acid was added (32 mg in 2 mL water). The resulting solution was gently heated and sonicated until a homogenous solution resulted, which was frozen and concentrated to dryness on the lyophilzer. The oily solid that resulted was re-dissolved in water, frozen and concentrated in the same manner to give a water soluble white solid (˜3 mg/mL). Further experiments were more easily conducted with this salt (32.0 mg, 91% yield over 2 steps).

T1 sequence (O14744 2-637 limits assumed): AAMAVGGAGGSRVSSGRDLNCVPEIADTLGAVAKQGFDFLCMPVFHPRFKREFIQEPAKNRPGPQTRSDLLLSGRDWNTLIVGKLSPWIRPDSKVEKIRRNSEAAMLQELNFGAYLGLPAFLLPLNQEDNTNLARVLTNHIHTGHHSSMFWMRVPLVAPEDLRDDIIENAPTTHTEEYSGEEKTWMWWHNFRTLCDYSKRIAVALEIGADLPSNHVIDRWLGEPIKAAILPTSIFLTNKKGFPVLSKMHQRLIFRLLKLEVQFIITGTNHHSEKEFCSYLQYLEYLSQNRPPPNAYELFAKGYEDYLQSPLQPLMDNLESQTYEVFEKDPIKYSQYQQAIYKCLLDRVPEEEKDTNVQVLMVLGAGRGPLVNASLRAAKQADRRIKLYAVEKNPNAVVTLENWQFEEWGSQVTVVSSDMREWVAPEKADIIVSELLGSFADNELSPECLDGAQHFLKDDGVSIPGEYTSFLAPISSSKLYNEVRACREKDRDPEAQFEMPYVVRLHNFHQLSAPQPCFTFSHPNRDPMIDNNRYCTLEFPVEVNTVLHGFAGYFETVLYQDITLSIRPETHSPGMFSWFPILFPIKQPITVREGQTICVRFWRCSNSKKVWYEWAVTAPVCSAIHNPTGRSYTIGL
T1 sequence (Q9BQA1 2-342 partner limits assumed): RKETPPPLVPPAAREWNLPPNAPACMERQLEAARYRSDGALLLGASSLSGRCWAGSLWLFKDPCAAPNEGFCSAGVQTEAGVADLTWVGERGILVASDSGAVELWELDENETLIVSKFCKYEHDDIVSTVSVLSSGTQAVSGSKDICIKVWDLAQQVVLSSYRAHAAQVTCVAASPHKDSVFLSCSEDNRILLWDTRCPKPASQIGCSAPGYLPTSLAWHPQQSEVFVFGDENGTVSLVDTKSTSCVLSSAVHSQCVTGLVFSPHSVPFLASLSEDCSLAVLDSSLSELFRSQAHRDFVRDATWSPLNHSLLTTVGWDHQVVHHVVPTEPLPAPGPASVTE

| Structure (SMILES) | IC50 (PRMT5) | AvgSens ME (%) [1] | AvgRes ME (%) [2] | Papp A→B at 2 h, 2 μM [3] | half-life at 1 μM [4] | hepatocyte CLint at 1 μM [4] | solubility [5] |
| --- | --- | --- | --- | --- | --- | --- | --- |
| Nc1nc2cc(C3C[C@@]4(CN3)C[C@@H](n3ccc5c(N)ncnc53)[C@H](O)[C@@H]4O)ccc2cc1Br (single isomer, unassigned) [Compound 8] | 0.101 to 0.5 µM | C (a percent of maximum effect of 29% or lower) | C (a percent of maximum effect of 29% or lower) | < 2 nm/s | – | – | – |
| Nc1nc2cc(C3C[C@@]4(CN3)C[C@@H](n3ccc5c(Cl)ncnc53)[C@H](O)[C@@H]4O)ccc2cc1Br (single isomer, unassigned) [Compound 9] | ≤ 0.1 µM | B (a percent of maximum effect of 30% to 59%) | C (a percent of maximum effect of 29% or lower) | < 2 nm/s | – | – | – |
| Nc1nc2cc(C3C[C@@]4(CO3)C[C@@H](n3ccc5c(N)ncnc53)[C@H](O)[C@@H]4O)ccc2cc1Br (single isomer, unassigned) [Compound 15] | ≤ 0.1 µM | A (a percent of maximum effect of 60% or greater) | B (a percent of maximum effect of 30% to 59%) | < 2 nm/s | > 50 min | < 50 µL/min/1e6 cells | ~3 mg/mL |
| Nc1nc2cc(C3C[C@@]4(CO3)C[C@@H](n3ccc5c(Cl)ncnc53)[C@H](O)[C@@H]4O)ccc2cc1Br (stereo partly drawn) [Compound 17] | ≤ 0.1 µM | A (a percent of maximum effect of 60% or greater) | B (a percent of maximum effect of 30% to 59%) | 2 to 9.9 nm/s | 15 to 50 min | 50 to 100 µL/min/1e6 cells | – |
| Cc1ncnc2c1ccn2[C@@H]1C[C@@]2(CO[C@@H](c3ccc4cc(Br)c(N)nc4c3)C2)[C@@H](O)[C@H]1O [Compound 19] | ≤ 0.1 µM | A (a percent of maximum effect of 60% or greater) | B (a percent of maximum effect of 30% to 59%) | ≥ 10 nm/s | > 50 min | < 50 µL/min/1e6 cells | – |
| Nc1nc2cc([C@H]3C[C@@]4(CO3)C[C@@H](n3ccc5cncnc53)[C@H](O)[C@@H]4O)ccc2cc1Br [Compound 22] | ≤ 0.1 µM | A (a percent of maximum effect of 60% or greater) | B (a percent of maximum effect of 30% to 59%) | ≥ 10 nm/s | < 15 min | > 100 µL/min/1e6 cells | – |
| CNc1ncnc2c1ccn2[C@@H]1C[C@@]2(CO[C@@H](c3ccc4cc(Br)c(N)nc4c3)C2)[C@@H](O)[C@H]1O [Compound 23] | ≤ 0.1 µM | A (a percent of maximum effect of 60% or greater) | B (a percent of maximum effect of 30% to 59%) | 2 to 9.9 nm/s | > 50 min | < 50 µL/min/1e6 cells | – |
| CCNc1ncnc2c1ccn2[C@@H]1C[C@@]2(CO[C@@H](c3ccc4cc(Br)c(N)nc4c3)C2)[C@@H](O)[C@H]1O [Compound 24] | ≤ 0.1 µM | A (a percent of maximum effect of 60% or greater) | B (a percent of maximum effect of 30% to 59%) | ≥ 10 nm/s | 15 to 50 min | 50 to 100 µL/min/1e6 cells | – |
